According to publication PMC12028158, “Synthesis and In Vitro Evaluation of the Anticancer Effect of Novel Phosphonium Vindoline Derivatives” (International Journal of Molecular Sciences, 2025):
Like-named read-outs stand apart in the source and are kept apart here.

What was measured:
Assay type in all cases: cell-based
SF-295 = experiment: NCI60 one-dose screen; details: Homo sapiens
SR = experiment: NCI60 one-dose screen; details: Homo sapiens, read-out: Growth percent
RXF 393 = experiment: NCI60 one-dose screen; details: Homo sapiens
UACC-257 = experiment: NCI60 one-dose screen; details: Homo sapiens
NCI-H322M = experiment: NCI60 five-dose screen; details: Homo sapiens
SNB-19 = experiment: NCI60 five-dose screen; details: Homo sapiens
T-47D = experiment: NCI60 one-dose screen; details: Homo sapiens, T47D, read-out: Growth percent
TK-10 = experiment: NCI60 one-dose screen; details: Homo sapiens
BT-549 [1] = experiment: NCI60 five-dose screen; details: Homo sapiens
CAKI-1 = experiment: NCI60 one-dose screen; details: Homo sapiens
OVCAR-8 [2] = experiment: NCI60 five-dose screen; details: Homo sapiens
A498 = experiment: NCI60 one-dose screen; details: Homo sapiens
NCI-H522 = experiment: NCI60 one-dose screen; details: Homo sapiens
BT-549 [3] = experiment: NCI60 one-dose screen; details: Homo sapiens
786-0 [4] = experiment: NCI60 one-dose screen; details: Homo sapiens
MDA-MB-231/ATCC = experiment: NCI60 one-dose screen; details: Homo sapiens, MDA-MB-231, read-out: Growth percent
MOLT-4 [5] = experiment: NCI60 five-dose screen; details: Homo sapiens
SK-MEL-28 = experiment: NCI60 one-dose screen; details: Homo sapiens
NCI/ADR-RES = experiment: NCI60 five-dose screen; details: Homo sapiens
PC-3 [6] = experiment: NCI60 one-dose screen; details: Homo sapiens
PC-3 [7] = experiment: NCI60 five-dose screen; details: Homo sapiens
HOP-92 = experiment: NCI60 one-dose screen; details: Homo sapiens
M14 = experiment: NCI60 five-dose screen; details: Homo sapiens
Colon Cancer panel = experiment: NCI60 five-dose screen, panel mean; details: Homo sapiens
Melanoma panel = experiment: NCI60 five-dose screen, panel mean; details: Homo sapiens
LOX IMVI = experiment: NCI60 five-dose screen; details: Homo sapiens
SNB-75 = experiment: NCI60 one-dose screen; details: Homo sapiens
KM12 = experiment: NCI60 one-dose screen; details: Homo sapiens
K-562 = experiment: NCI60 five-dose screen; details: Homo sapiens, K562
HT29 = experiment: NCI60 five-dose screen; details: Homo sapiens, HT-29
OVCAR-5 = experiment: NCI60 five-dose screen; details: Homo sapiens
RPMI-8226 = experiment: NCI60 one-dose screen; details: Homo sapiens
OVCAR-3 = experiment: NCI60 one-dose screen; details: Homo sapiens
HCC-2998 = experiment: NCI60 one-dose screen; details: Homo sapiens
SF-539 = experiment: NCI60 five-dose screen; details: Homo sapiens
786-0 [8] = experiment: NCI60 five-dose screen; details: Homo sapiens
OVCAR-4 = experiment: NCI60 one-dose screen; details: Homo sapiens
MDA-MB-468 = experiment: NCI60 one-dose screen; details: Homo sapiens
HCT-15 = experiment: NCI60 one-dose screen; details: Homo sapiens
[9] = system: Non-small Cell Lung Cancer panel; experiment: NCI60 five-dose screen, panel mean; details: Homo sapiens
Renal Cancer panel = experiment: NCI60 five-dose screen, panel mean; details: Homo sapiens
SW-620 = experiment: NCI60 one-dose screen; details: Homo sapiens
SK-OV-3 = experiment: NCI60 one-dose screen; details: Homo sapiens
OVCAR-8 [10] = experiment: NCI60 one-dose screen; details: Homo sapiens
MOLT-4 [11] = experiment: NCI60 one-dose screen; details: Homo sapiens

CC[C@]12C=CCN3CC[C@@]4(c5ccc(OC)cc5N(C)[C@H]4[C@@](O)(C(=O)OC)[C@@H]1OC(=O)CCCC[P+](C1CCCCC1)(C1CCCCC1)C1CCCCC1)[C@@H]32 [10d]
activity at 10 µM (SF-295; SF-295, read-out: Growth percent): -19.6%
activity at 10 µM (SR): 19.5%
activity at 10 µM (RXF 393; RXF 393, read-out: Growth percent): -73.8%
activity at 10 µM (UACC-257; UACC-257, read-out: Growth percent): -82.1%
GI50 (NCI-H322M): 5300 nM
GI50 (SNB-19; SNB-19): 1920 nM
activity at 10 µM (T-47D): 3.83%
activity at 10 µM (TK-10; TK-10, read-out: Growth percent): -64.1%
GI50 (BT-549 [1]; BT-549): 2450 nM
activity at 10 µM (CAKI-1; CAKI-1, read-out: Growth percent): -24.1%
GI50 (OVCAR-8 [2]; OVCAR-8): 2930 nM
activity at 10 µM (A498; A498, read-out: Growth percent): -0.04%
activity at 10 µM (NCI-H522; NCI-H522, read-out: Growth percent): -71.8%
activity at 10 µM (BT-549 [3]; BT-549, read-out: Growth percent): -97.4%
activity at 10 µM (786-0 [4]; 786-0, read-out: Growth percent): -36%
activity at 10 µM (MDA-MB-231/ATCC): -92.8%
GI50 (MOLT-4 [5]; MOLT-4): 1720 nM
activity at 10 µM (SK-MEL-28; SK-MEL-28, read-out: Growth percent): -86.5%
GI50 (NCI/ADR-RES): 65.5 µM
activity at 10 µM (PC-3 [6]; PC-3, read-out: Growth percent): 3.69%
GI50 (PC-3 [7]; PC-3): 1460 nM
activity at 10 µM (HOP-92; HOP-92, read-out: Growth percent): -44.5%
GI50 (M14; M14): 2200 nM
GI50 (Colon Cancer panel; read-out: GI50 Mean): 3800 nM
GI50 (Melanoma panel; read-out: GI50 Mean): 1960 nM
GI50 (LOX IMVI): 2900 nM
activity at 10 µM (SNB-75; SNB-75, read-out: Growth percent): -81.4%
activity at 10 µM (KM12; KM12, read-out: Growth percent): -71.1%
GI50 (K-562): 983 nM
GI50 (HT29): 1430 nM
GI50 (OVCAR-5; OVCAR-5): 3190 nM
activity at 10 µM (RPMI-8226; RPMI-8226, read-out: Growth percent): -45%
activity at 10 µM (OVCAR-3; OVCAR-3, read-out: Growth percent): -60.3%
activity at 10 µM (HCC-2998; HCC 2998, read-out: Growth percent): -87.8%
GI50 (SF-539; SF-539): 2850 nM
GI50 (786-0 [8]; 786-0): 5430 nM
activity at 10 µM (OVCAR-4; OVCAR-4, read-out: Growth percent): 12.4%
activity at 10 µM (MDA-MB-468; MDA-MB-468, read-out: Growth percent): -79%
activity at 10 µM (HCT-15; HCT-15, read-out: Growth percent): 75.2%
GI50 ([9]; read-out: GI50 Mean): 2950 nM
GI50 (Renal Cancer panel; read-out: GI50 Mean): 8.36 µM
activity at 10 µM (SW-620; SW-620, read-out: Growth percent): 2.08%
activity at 10 µM (SK-OV-3; SK-OV-3, read-out: Growth percent): -22.2%
activity at 10 µM (OVCAR-8 [10]; OVCAR-8, read-out: Growth percent): -6.33%
activity at 10 µM (MOLT-4 [11]; MOLT-4, read-out: Growth percent): -5.16%

CC[C@]12C=CCN3CC[C@@]4(c5ccc(OC)cc5N(C)[C@H]4[C@@](O)(C(=O)OC)[C@@H]1OC(=O)CCC[P+](c1cc(C)c(OC)c(C)c1)(c1cc(C)c(OC)c(C)c1)c1cc(C)c(OC)c(C)c1)[C@@H]32 [9e]
activity at 10 µM (SF-295; SF-295, 10 μM, one-dose, read-out: Growth percent): -98.6%
activity at 10 µM (RXF 393; RXF 393, 10 μM, one-dose, read-out: Growth percent): -98.6%
activity at 10 µM (UACC-257; UACC-257, 10 μM, one-dose, read-out: Growth percent): -99.3%
GI50 (NCI-H322M; Non-small Cell Lung Cancer, five-dose, read-out: GI50): 342 nM
GI50 (SNB-19; SNB-19, CNS cancer SNB-19, text, read-out: GI50): < 100 nM
GI50 (SNB-19; SNB-19, SNB-19, CNS Cancer, five-dose, read-out: GI50): 59 nM
activity at 10 µM (TK-10; TK-10, 10 μM, one-dose, read-out: Growth percent): -99.3%
GI50 (BT-549 [1]; BT-549, Breast Cancer, five-dose, read-out: GI50): 170 nM
activity at 10 µM (CAKI-1; CAKI-1, 10 μM, one-dose, read-out: Growth percent): -97%
GI50 (OVCAR-8 [2]; OVCAR-8, Ovarian Cancer, five-dose, read-out: GI50): 300 nM
activity at 10 µM (A498; A498, 10 μM, one-dose, read-out: Growth percent): -98.9%
activity at 10 µM (NCI-H522; NCI-H522, 10 μM, one-dose, read-out: Growth percent): -98.4%
activity at 10 µM (BT-549 [3]; BT-549, 10 μM, one-dose, read-out: Growth percent): -98%
activity at 10 µM (786-0 [4]; 786-0, 10 μM, one-dose, read-out: Growth percent): -97.9%
GI50 (MOLT-4 [5]; MOLT-4, Leukemia, five-dose, read-out: GI50): 164 nM
activity at 10 µM (SK-MEL-28; SK-MEL-28, 10 μM, one-dose, read-out: Growth percent): -98.2%
GI50 (NCI/ADR-RES; Ovarian Cancer, five-dose, read-out: GI50): 5.11 µM
activity at 10 µM (PC-3 [6]; PC-3, 10 μM, one-dose, read-out: Growth percent): -97.7%
GI50 (PC-3 [7]; PC-3, Prostate Cancer, five-dose, read-out: GI50): 192 nM
activity at 10 µM (HOP-92; HOP-92, 10 μM, one-dose, read-out: Growth percent): -98.9%
GI50 (M14; M14, Melanoma, five-dose, read-out: GI50): 299 nM
GI50 (Colon Cancer panel; mean over Colon Cancer panel, read-out: Mean GI50): 240 nM
GI50 (Melanoma panel; mean over Melanoma panel, read-out: Mean GI50): 180 nM
GI50 (LOX IMVI; Melanoma, five-dose, read-out: GI50): 145 nM
activity at 10 µM (SNB-75; SNB-75, 10 μM, one-dose, read-out: Growth percent): -98.9%
activity at 10 µM (KM12; KM12, 10 μM, one-dose, read-out: Growth percent): -95%
GI50 (K-562; K-562, Leukemia, five-dose, read-out: GI50): 195 nM
GI50 (HT29; HT29, Colon Cancer, five-dose, read-out: GI50): 151 nM
GI50 (OVCAR-5; OVCAR-5, Ovarian Cancer, five-dose, read-out: GI50): 339 nM
activity at 10 µM (RPMI-8226; RPMI-8226, 10 μM, one-dose, read-out: Growth percent): -98.3%
activity at 10 µM (OVCAR-3; OVCAR-3, 10 μM, one-dose, read-out: Growth percent): -99%
activity at 10 µM (HCC-2998; HCC-2998, 10 μM, one-dose, read-out: Growth percent): -97.9%
GI50 (SF-539; SF-539, CNS Cancer, five-dose, read-out: GI50): 307 nM
GI50 (786-0 [8]; 786-0, Renal Cancer, five-dose, read-out: GI50): 239 nM
activity at 10 µM (OVCAR-4; OVCAR-4, 10 μM, one-dose, read-out: Growth percent): -98.7%
activity at 10 µM (MDA-MB-468; MDA-MB-468, 10 μM, one-dose, read-out: Growth percent): -99.4%
activity at 10 µM (HCT-15; HCT-15, 10 μM, one-dose, read-out: Growth percent): -93.9%
GI50 ([9]; mean over Non-small Cell Lung Cancer panel, read-out: Mean GI50): 230 nM
GI50 (Renal Cancer panel; mean over Renal Cancer panel, read-out: Mean GI50): 0.44 µM
activity at 10 µM (SW-620; SW-620, 10 μM, one-dose, read-out: Growth percent): -95.8%
activity at 10 µM (SK-OV-3; SK-OV-3, 10 μM, one-dose, read-out: Growth percent): -97.7%
activity at 10 µM (OVCAR-8 [10]; OVCAR-8, 10 μM, one-dose, read-out: Growth percent): -95.5%
activity at 10 µM (MOLT-4 [11]; MOLT-4, 10 μM, one-dose, read-out: Growth percent): -98.3%
